# Source: US6713475B2, “Tricyclic benzodiazepines as vasopressin receptor antagonists” (Ortho-McNeil Pharmaceutical, Inc., priority 1999, dated 2004)
# Several values for one entry are separate records, joined by “and”; a condition that tells them apart may be missing. Equal entries are not always repeated.
# Experiments:
# V2 = V2 (Homo sapiens, UniProt P30518); assay: In vitro recombinant vasopressin receptor binding assay (V2 Bdg), displacement of 3H-arginine vasopressin; design: expressed in transfected cells; host or cells: HEK-293; details: for IC50: membrane with cloned human V-2 receptor (HEK-293); for V2 Bdg % inh: 0.1 uM, printed in parentheses in place of IC50; for inhibition at 0.1 µM: read-out: V2 Bdg % inh
# Description: (§1) In vitro Recombinant Vasopressin Receptor Binding Assay
# Compounds were assessed for their ability to displace ^3H-arginine vasopressin from the human V-1 or V-2 receptor in HEK-293 cells. […] Into wells of 96-well round bottom polypropylene plates were added buffer, test compound, membrane (containing cloned human V-1 or V-2 receptor), and ^3H-vasopressin. The reaction plates were allowed to sit at room temperature for one hour. The samples were filtered through Unifilter GF/C plates (presoaked in 0.3 polyethyleneimine). The plates were washed 5 times with cold physiological saline containing 0.05% Tween 20. After drying, the bottom of the filter plates were sealed and 0.025 ml of Microscint-20 was added to each filter. The top of the plate was sealed, and the plate was counted.
# human V-1 receptor = target: T1, human V-1 receptor (Homo sapiens, UniProt P37288); assay: In vitro recombinant vasopressin receptor binding assay (V1 Bdg), displacement of 3H-arginine vasopressin; details: for inhibition at 10 µM: read-out: V1 Bdg % inh; for V1 Bdg % inh: 1 uM
# T1 construct: expressed in transfected cells; host or cells: HEK-293
# Description: as §1
# Compounds were assessed for their ability to displace ^3H-arginine vasopressin from the human V-1 or V-2 receptor in HEK-293 cells. Assay buffer is 50 mM Tris-Cl, 5 mM MgCl2, 0.1% BSA (pH 7.5) containing 5 ug/ml of aprotinin, leupeptin, pepstatin, 50 ug/ml bacitracin, and 1 mM Pefabloc. ^3H-vasopressin is ^3H-arginine-8-vasopressin (68.5 Ci/mmol, final concentration in assay is 0.65-0.75 nM). Into wells of 96-well round bottom polypropylene plates were added buffer, test compound, membrane (containing cloned human V-1 or V-2 receptor), and ^3H-vasopressin. The reaction plates were allowed to sit at room temperature for one hour. The samples were filtered through Unifilter GF/C plates (presoaked in 0.3 polyethyleneimine). The plates were washed 5 times with cold physiological saline containing 0.05% Tween 20. After drying, the bottom of the filter plates were sealed and 0.025 ml of Microscint-20 was added to each filter. The top of the plate was sealed, and the plate was counted. Non-specific binding was determined by the addition of 1.25 uM arginine-8-vasopressin in those wells.
# T1 sequence (P37288 whole entry): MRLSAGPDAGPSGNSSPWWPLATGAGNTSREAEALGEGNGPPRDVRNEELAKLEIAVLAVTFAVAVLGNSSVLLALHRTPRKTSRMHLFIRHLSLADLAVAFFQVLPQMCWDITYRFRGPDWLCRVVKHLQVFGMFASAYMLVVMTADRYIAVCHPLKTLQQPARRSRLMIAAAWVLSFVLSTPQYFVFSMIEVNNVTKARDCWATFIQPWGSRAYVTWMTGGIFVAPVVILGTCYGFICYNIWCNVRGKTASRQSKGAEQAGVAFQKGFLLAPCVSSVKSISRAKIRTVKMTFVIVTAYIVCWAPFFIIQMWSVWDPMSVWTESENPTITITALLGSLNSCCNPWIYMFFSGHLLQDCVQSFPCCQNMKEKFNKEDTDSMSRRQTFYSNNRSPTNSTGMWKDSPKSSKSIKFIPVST
Compound,IC50 (V2) [µM],V2 Bdg % inh (V2),further results
"O=C(Nc1ccc(C(=O)N2CC3CSCCN3Cc3cc(F)ccc32)cc1)c1ccccc1-c1ccccc1 (racemic) [Compound 32, (RS)-2-Phenyl-N-[4-(8-fluoro-1,3,4,12a-tetrahydro-6H-[1,4]thiazino[4,3-a][1,4]-benzodiazepin-11(12H)-yl-carbonyl)phenyl]benzamide]",0.02,,inhibition at 10 µM (human V-1 receptor): 44%
"Cc1ccc(-c2ccccc2C(=O)Nc2ccc(C(=O)N3CC4CN(C)CCN4Cc4ccccc43)c(C(F)(F)F)c2)cc1 (racemic) [Compound 76, (RS)-2-(4-Methyl-phenyl)-N-[3-trifluoromethyl-4-(1,3,4,12a-tetrahydro-2-methyl-6H-[1,4]pyrazino[4,3-a][1,4]-benzodiazepin-11(12H)-yl-carbonyl)phenyl]benzamide]",,(50%/0.1 uM),V1 Bdg % inh (human V-1 receptor): (18%/1 uM)
"Cc1c(I)cccc1C(=O)Nc1ccc(C(=O)N2CC3CSCCN3Cc3ccccc32)c(Cl)c1 (racemic) [Compound 44, (RS)-2-Methyl-3-iodo-N-[3-chloro-4-(1,3,4,12a-tetrahydro-6H-[1,4]thiazino[4,3-a][1,4]-benzodiazepin-11(12H)-yl-carbonyl)phenyl]benzamide]",,(43%/0.1 uM),"V1 Bdg (% inh, 0.1 uM) (human V-1 receptor): 2%"
"O=C(Nc1ccc(C(=O)N2CC3CSCCN3Cc3cc(F)c(F)cc32)cc1)c1ccccc1-c1ccccc1 (racemic) [Compound 35, (RS)-2-Phenyl-N-[4-(8,9-difluoro-1,3,4,12a-tetrahydro-6H-[1,4]thiazino[4,3-a][1,4]-benzodiazepin-11(12H)-yl-carbonyl)phenyl]benzamide]",0.038,,inhibition at 10 µM (human V-1 receptor): 15%
"Cc1ccccc1C(=O)Nc1ccc(C(=O)N2CC3CN(C)CCN3Cc3ccccc32)c(Cl)c1 (racemic) [Compound 61, (RS)-2-Methyl-N-[3-chloro-4-(1,3,4,12a-tetrahydro-2-methyl-6H-[1,4]pyrazino[4,3-a][1,4]-benzodiazepin-11(12H)-yl-carbonyl)phenyl]benzamide]",,(28%/0.I uM),V1 Bdg % inh (human V-1 receptor): (21%/1 uM)
"(RS)-2-Chloro-5-trifluoromethyl-N-[3-chloro-4-(1,3,4,12a-tetrahydro-6H-[1,4]oxazino[4,3-a][1,4]-benzodiazepin-11(12H)-yl-carbonyl)phenyl]benzamide [Compound 17]",,(63%/0.1 uM),"V1 Bdg (% inh, 0.1 uM) (human V-1 receptor): 13%"
"COc1cccc(-c2ccccc2C(=O)Nc2ccc(C(=O)N3CC4CN(C)CCN4Cc4ccccc43)c(Cl)c2)c1 (racemic) [Compound 68, (RS)-2-(3-Methoxy-phenyl)-N-[3-chloro-4-(1,3,4,12a-tetrahydro-2-methyl-6H-[1,4]pyrazino[4,3-a][1,4]-benzodiazepin-11(12H)-yl-carbonyl)phenyl]benzamide]",,(37%/0.1 uM),V1 Bdg % inh (human V-1 receptor): (7%/1 uM)
"COc1cc(C(=O)N2CC3CN(C)CCN3Cc3ccccc32)ccc1NC(=O)c1ccccc1C (racemic) [Compound 71, (RS)-2-Methyl-N-[2-methoxy-4-(1,3,4,12a-tetrahydro-2-methyl-6H-[1,4]pyrazino[4,3-a][1,4]-benzodiazepin-11(12H)-yl-carbonyl)phenyl]benzamide]",,,V1 Bdg % inh (human V-1 receptor): (12%/1 uM)
"O=C(Nc1ccc(C(=O)N2C[C@H]3COCCN3Cc3ccccc32)c(Cl)c1)c1ccc(O)cc1-c1ccccc1 [Compound 6, (S)-2-Phenyl-4-hydroxy-N-[3-chloro-4-(1,3,4,12a-tetrahydro-6H-[1,4]oxazino[4,3-a][1,4]-benzodiazepin-11(12H)-yl-carbonyl)phenyl]benzamide]",,,"inhibition at 0.1 µM (human V-1 receptor; read-out: V1 Bdg (% inh, 0.1 uM)): 49%"
"(RS)-2,3-Difluoro-N-[3-chloro-4-(1,3,4,12a-tetrahydro-2-methyl-6H-[1,4]pyrazino[4,3-a][1,4]-benzodiazepin-11(12H)-yl-carbonyl)phenyl]benzamide [Compound 101]",,,V1 Bdg % inh (human V-1 receptor): (6%/1 uM)
"O=C(Nc1ccc(C(=O)N2CC3CN(Cc4ccccc4)CCN3Cc3ccccc32)cc1)c1ccccc1-c1ccccc1 (racemic) [Compound 57, (RS)-2-Phenyl-N-[4-(1,3,4,12a-tetrahydro-2-benzyl-6H-[1,4]pyrazino[4,3-a][1,4]-benzodiazepin-11(12H)-yl-carbonyl)phenyl]benzamide]",,(25%/0.1 uM),
"O=C(Nc1ccc(C(=O)N2CC3CSCCN3Cc3ccccc32)c(F)c1)c1ccccc1-c1ccccc1 (racemic) [Compound 106, (RS)-2-Phenyl-N-[3-fluoro-4-(1,3,4,12a-tetrahydro-6H-[1,4]thiazinol[4,3-a][1,4]-benzodiazepin-11(12H)-yl-carbonyl)phenyl]benzamide]",0.022,,
"COc1ccc(-c2ccccc2)c(C(=O)Nc2ccc(C(=O)N3CC4COCCN4Cc4ccccc43)c(Cl)c2)c1 (racemic) [Compound 116, (RS)-2-Phenyl-5-methoxy-N-[3-chloro-4-(1,3,4,12a-tetrahydro-6H-[1,4]oxazino[4,3-a][1,4]-benzodiazepin-11(12H)-yl-carbonyl)phenyl]benzamide]",0.037,,
"Cc1ccccc1C(=O)Nc1ccc(C(=O)N2CC3CN(C)CCN3Cc3ccccc32)c(C(F)(F)F)c1 (racemic) [Compound 74, (RS)-2-M ethyl-N-[3-trifluoromethyl-4-(1,3,4,12a-tetrahydro-2-methyl-6H-[1,4]pyrazino[4,3-a][1,4]-benzodiazepin-11(12H)-yl-carbonyl)phenyl]benzamide]",,(4%/0.1 uM),
"COc1cc(C(=O)N2CC3CN(C)CCN3Cc3ccccc32)ccc1NC(=O)c1ccccc1-c1ccc(C)cc1 (racemic) [Compound 73, (RS)-2-(4-Methyl-phenyl)-N-[2-methoxy-4-(1,3,4,12a-tetrahydro-2-methyl-6H-[1,4]pyrazino[4,3-a][1,4]-benzodiazepin-11(12H)-yl-carbonyl)phenyl]benzamide]",0.043,,inhibition at 0.1 µM (V2): 73%
"O=C(Nc1ccc(C(=O)N2C[C@H]3CSCCN3Cc3ccccc32)c(Cl)c1)c1ccccc1-c1ccccc1 [Compound 47, (S)-2-Phenyl-N-[3-chloro-4-(1,3,4,12a-tetrahydro-6H-[1,4]thiazino[4,3-a][1,4]-benzodiazepin-11(12H)-yl-carbonyl)phenyl]benzamide]",0.011,,
"Cc1cccc2c1N(C(=O)c1ccc(NC(=O)c3ccccc3-c3ccccc3)cc1)CC1CSCCN1C2 (racemic) [Compound 39, (RS)-2-Phenyl-N-[4-(10-methyl-1,3,4,12a-tetrahydro-6H-[1,4]thiazino[4,3-a][1,4]-benzodiazepin-11(12H)-yl-carbonyl)phenyl]benzamide]",,,inhibition at 0.1 µM (V2): 37%
"COc1ccc(C(=O)Nc2ccc(C(=O)N3CC4COCCN4Cc4ccccc43)c(Cl)c2)c(-c2ccccc2)c1 (racemic) [Compound 115, (RS)-2-Phenyl-4-methoxy-N-[3-chloro-4-(1,3,4,12a-tetrahydro-6H-[1,4]oxazino[4,3-a][1,4]-benzodiazepin-11(12H)-yl-carbonyl)phenyl]benzamide]",0.009,,
"O=C(Nc1ccc(C(=O)N2CC3CSCCN3Cc3ccccc32)c(Cl)c1)c1ccccc1-c1ccsc1 (racemic) [Compound 50, (RS)-2-(3-Thienyl)-N-[3-chloro-4-(1,3,4,12a-tetrahydro-6H-[1,4]thiazino[4,3-a][1,4]-benzodiazepin-11(12H)-yl-carbonyl)phenyl]benzamide]",0.04,,
"Cc1cccc(C(=O)Nc2ccc(C(=O)N3CC4CN(C)CCN4Cc4ccccc43)c(Cl)c2)c1C (racemic) [Compound 62, (RS)-2,3-Dimethyl-N-[3-chloro-4-(1,3,4,12a-tetrahydro-2-methyl-6H-[1,4]pyrazino[4,3-a][1,4]-benzodiazepin-11(12H)-yl-carbonyl)phenyl]benzamide]",,28% and 48%,
"COc1ccc(-c2ccccc2C(=O)Nc2ccc(C(=O)N3CC4COCCN4Cc4ccccc43)c(Cl)c2)cc1 (racemic) [Compound 112, (RS)-2-(4-Methoxy-phenyl)-N-[3-chloro-4-(1,3,4,12a-tetrahydro-6H-[1,4]oxazino[4,3-a][1,4]-benzodiazepin-11(12H)-yl-carbonyl)phenyl]benzamide]",0.006,,
"Cc1csc(-c2ccccc2C(=O)Nc2ccc(C(=O)N3CC4COCCN4Cc4ccccc43)cc2)c1 (racemic) [Compound 54, (RS)-2-(4-Methyl-2-thienyl)-N-[4-(1,3,4,12a-tetrahydro-6H-[1,4]oxazino[4,3-a][1,4]-benzodiazepin-11(12H)-yl-carbonyl)phenyl]benzamide]",,,inhibition at 0.1 µM (V2): 57%
"O=C(Nc1ccc(C(=O)N2CC3CSCCN3Cc3ccccc32)cc1)c1ccccc1-c1cccs1 (racemic) [Compound 52, (RS)-2-(2-Thienyl)-N-[4-(1,3,4,12a-tetrahydro-6H-[1,4]thiazino[4,3-a][1,4]-benzodiazepin-11(12H)-yl-carbonyl)phenyl]benzamide]",,(36%/0.1 uM),
